Here are results for three compounds from ChEMBL document CHEMBL1146649, “New highly active taxoids from 9 beta-dihydrobaccatin-9,10-acetals. Part 5” (2004).

Molecules are shown by their SMILES. In brackets after ≈: the same amount, converted by molar mass.

Assay [1] has as its system Mus musculus. As to the kind of experiment: Maximum rate of body weight loss after peroral administration of 17.8 mg/kg of compound in mice. In kind it is functional. As to conditions: route oral.
The subject of assay [2] is Mus musculus. As to the kind of experiment: Number of mice died at 17.8 mg/kg of intravenous dose among the total 6 mice tested. Format: functional.
Assay [3] relates to Mus musculus. Put plainly: Maximum rate of body weight loss after peroral administration of 7.9 mg/kg of compound in mice. Format: functional. As to conditions: route oral.
For assay [4], the system named is Mus musculus. As to the kind of experiment: Effective dose of intravenously administered compound against B16 melanoma BL6 cells implanted into mice; range is 5.3-11.9. In kind it is functional. Conditions: B16, iv.
Assay [5] relates to Mus musculus. As to the kind of experiment: Number of mice died at 7.9 mg/kg of peroral dose of compound among the total 6 mice tested. In kind it is functional. Conditions: route oral.
The subject of assay [6] is Mus musculus. Put plainly: Number of mice died at 11.9 mg/kg of intravenous dose, among the total 6 mice tested. Format: functional.
In assay [7] the test system is Mus musculus. As to the kind of experiment: Maximum rate of body weight loss after intravenous administration of 7.9 mg/kg of compound in mice. In kind it is functional.
Assay [8] relates to Mus musculus. Put plainly: Maximum rate of body weight loss after peroral administration of 11.9 mg/kg of compound in mice. Format: functional. As to conditions: route oral.
The subject of assay [9] is Mus musculus. As to the kind of experiment: Antitumor activity of 5.3 mg/kg of perorally administered compound against B16 melanoma BL6 cells implanted into mice, value reported is percent compared to control. Conditions: route oral. Format: functional.
For assay [10], the system named is Mus musculus. As to the kind of experiment: Antitumor activity of 5.3 mg/kg of intravenously administered compound against B16 melanoma BL6 cells implanted into mice, value reported is percent compared to control. Format: functional. As to conditions: route intravenous.
The test system of assay [11] is Mus musculus. As to the kind of experiment: Maximum rate of body weight loss after peroral administration of 5.3 mg/kg of compound in mice. In kind it is functional. Conditions: route oral.
Assay [12] deals with Mus musculus. Put plainly: Number of mice died at 11.9 mg/kg of peroral dose, among the total 6 mice tested. Format: functional. As to conditions: route oral.
For assay [13], the system named is Mus musculus. As to the kind of experiment: Number of mice died at 7.9 mg/kg of intravenous dose of compound among the total 6 mice tested. Format: functional.
Assay [14] relates to Mus musculus. As to the kind of experiment: Maximum rate of body weight loss after intravenous administration of 5.3 mg/kg of compound in mice. In kind it is functional.
The subject of assay [15] is P388. As to the kind of experiment: Concentration required to inhibit mouse P388 cell line growth by 50% at 72 hr continuous exposure. In kind it is functional. As to conditions: P388, 72 h.
The subject of assay [16] is B16. Put plainly: Antitumor activity of 17.8 mg/kg of perorally administered compound against B16 melanoma BL6 cells implanted into mice, value reported is percent compared to control. Format: functional, Mus musculus. Conditions: route oral.
Assay [17] relates to Mus musculus. Put plainly: Number of mice died at 5.3 mg/kg of peroral dose of compound among the total 6 mice tested. As to conditions: route oral. In kind it is functional.
In assay [18] the test system is Mus musculus. Put plainly: Number of mice died at 5.3 mg/kg of intravenous dose of compound among the total 6 mice tested. Format: functional.
Assay [19] deals with Mus musculus. As to the kind of experiment: Effective dose of perorally administered compound against B16 melanoma BL6 cells implanted into mice; range is 7.9-11.0. Format: functional. Conditions: B16, po.
Assay [20] relates to B16. As to the kind of experiment: Antitumor activity of 11.9 mg/kg of intravenously administered compound against B16 melanoma BL6 cells implanted into mice, value reported is percent compared to control. Format: functional, Mus musculus. As to conditions: route intravenous.
The test system of assay [21] is PC-6. Put plainly: Concentration required to inhibit human PC-6 cell line growth by 50% at 72 hr continuous exposure. In kind it is functional. Conditions: PC-6, 72 h.
Assay [22] relates to PC-6. As to the kind of experiment: Concentration required to inhibit human PC-6/VCR29-9 cell line growth by 50% at 72 hr exposure. Conditions: PC-6, 72 h. Format: functional.
Assay [23] relates to Mus musculus. Put plainly: Antitumor activity of 7.9 mg/kg of intravenously administered compound against B16 melanoma BL6 cells implanted into mice, value reported is percent compared to control. Conditions: route intravenous. Format: functional.
In assay [24] the test system is Mus musculus. Put plainly: Antitumor activity of 7.9 mg/kg of perorally administered compound against B16 melanoma BL6 cells implanted into mice, value reported is percent compared to control. As to conditions: route oral. In kind it is functional.
For assay [25], the system named is PC-6. As to the kind of experiment: Concentration required to inhibit human PC-6/VP1-1 cell line growth by 50% at 72 hr exposure. In kind it is functional. Conditions: PC-6, 72 h.
Assay [26] has as its system Mus musculus. As to the kind of experiment: Number of mice died at 17.8 mg/kg of peroral dose among the total 6 mice tested. As to conditions: route oral. In kind it is functional.
Assay [27] has as its system PC-12. Put plainly: Concentration required to inhibit human PC-12 cell line growth by 50% at 72 hr continuous exposure. Format: functional. Conditions: PC-12, 72 h.
The subject of assay [28] is Mus musculus. Put plainly: Maximum rate of body weight loss after intravenous administration of 11.9 mg/kg of compound in mice. Format: functional.
Assay [29] has as its system B16. Put plainly: Antitumor activity of 11.9 mg/kg of perorally administered compound against B16 melanoma BL6 cells implanted into mice, value reported is percent compared to control. In kind it is functional, Mus musculus. As to conditions: route oral.
The test system of assay [30] is B16. Put plainly: Effective dose of intravenously administered compound against B16 melanoma BL6 cells implanted into mice. As to conditions: Mus musculus, B16, iv. Format: functional.
For assay [31], the system named is Mus musculus. Put plainly: Effective dose of perorally administered compound against B16 melanoma BL6 cells implanted into mice; range is 11.9-27.6. In kind it is functional. As to conditions: B16, po.
In assay [32] the test system is Mus musculus. As to the kind of experiment: Effective dose of intravenously administered compound against B16 melanoma BL6 cells implanted into mice; range is 7.8-17.8. As to conditions: B16, iv. Format: functional.
For assay [33], the system named is B16. As to the kind of experiment: Effective dose of perorally administered compound against B16 melanoma BL6 cells implanted into mice. Format: functional. Conditions: Mus musculus, B16, po.

Take `CC(=O)O[C@@]12CO[C@@H]1CC[C@@]1(C)[C@@H]3O[C@H](CN(C)C)O[C@@H]3C3=C(C)[C@@H](OC(=O)[C@H](O)[C@@H](NC(=O)OC(C)(C)C)c4cccc(F)n4)C[C@@](O)([C@@H](OCc4ccccc4)[C@@H]12)C3(C)C`: the BWLmax in assay [1] is 13.9%; in [3] it was 3.8%; in assay [7], 2.9%; in assay [8], 12.9%; in assay [11], below 0%; in assay [14], 2%. The BWLmax in assay [28] came to 12%. For the same compound, the Mortality in assay [2] was determined as 6; in assay [5], 0; in assay [6], 0; in assay [12], 0; in assay [13], 0; in [17], 0. For the same compound, the Mortality in assay [18] is 0; in assay [26], 5. Also, the 50% effective dose (ED50) in assay [4] was found to be 11.9 mg/kg; in [19] it was 11 mg/kg. The IR in assay [9] was determined as 42.4%; in assay [10], 67.6%; in assay [16], 94.8%; in assay [20] it was 95.6%; in assay [23] it was 91.5%; in assay [24], 91.5%. The IR in assay [29] is given as 97.4%. Moreover, the GI50 in [15] worked out at 0.67 ng/mL (≈ 0.772 nM); in [21], 0.38 ng/mL (≈ 0.438 nM); in assay [22] it was 2.58 ng/mL (≈ 2.97 nM); in assay [25] it was 21.3 ng/mL (≈ 24.5 nM); in assay [27], 0.62 ng/mL (≈ 0.714 nM).

As to `CC(=O)O[C@@]12CO[C@@H]1CC[C@@]1(C)[C@@H]3O[C@H](CNC4CCC4)O[C@@H]3C3=C(C)[C@@H](OC(=O)[C@H](O)[C@@H](NC(=O)OC(C)(C)C)c4ccccn4)C[C@@](O)([C@@H](OCc4ccccc4)[C@@H]12)C3(C)C`, the figures for the ED50 in assay [30] and in assay [31] were 7.9 mg/kg and 27.6 mg/kg, respectively. The GI50 in assay [15] is 0.56 ng/mL (≈ 0.639 nM); in assay [21], 0.83 ng/mL (≈ 0.947 nM); in assay [22], 4.88 ng/mL (≈ 5.57 nM); in [25], 81.7 ng/mL (≈ 93.3 nM); in [27] it was 1.45 ng/mL (≈ 1.66 nM).

Consider `CC(=O)O[C@@]12CO[C@@H]1CC[C@@]1(C)[C@@H]3O[C@H](CN(C)C)O[C@@H]3C3=C(C)[C@@H](OC(=O)[C@H](O)[C@@H](NC(=O)OC(C)(C)C)c4nccs4)C[C@@](O)([C@@H](OCc4ccccc4)[C@@H]12)C3(C)C`, for which the GI50 in assay [15] was found to be 0.25 ng/mL (≈ 0.292 nM); in [21] it was 0.27 ng/mL (≈ 0.315 nM); in assay [22] it was 2.81 ng/mL (≈ 3.28 nM); in [25] it was 39.1 ng/mL (≈ 45.7 nM); in assay [27], 0.35 ng/mL (≈ 0.409 nM). The ED50 amounted to 17.8 mg/kg in [32] and 11.9 mg/kg in [33].

As usually defined, the ED50 is the midpoint of the dose-response relation. The term GI50 denotes the concentration that inhibits growth by half.
